Data from patent US11230527B2, “Solid forms of 2-(5-(4-(2-morpholinoethoxy)phenyl)pyridin-2-yl)-n- benzylacetamide” (Athenex HK Innovative Limited, priority 2017, dated 2022).

Tests used:
Type in all cases: physicochemical
[1] = HPLC chemical stability after storage at various conditions; conditions: for Area Percent at 248 nm T1 week: 1 week; for Area Percent at 248 nm T2 week: 2 weeks; for Area Percent at 248 nm T4 week: 4 weeks; for Area Percent at 248 nm T8 week: 8 weeks
Experimental: High-performance Liquid Chromatography (HPLC) analysis was performed to determine the chemical stability of Forms A, B, and C of Compound A after storage at various conditions, using an Agilent 1100 system with DAD. Chemical stability was estimated by measuring and comparing the area percent of the material peak at various time points. For High-performance Liquid Chromatography (HPLC) analysis, an Agilent 1100 system with DAD was used.

[2] = XRPD physical form stability under storage conditions; conditions: up to eight weeks
Experimental: (§1) XRPD analysis is carried out using a diffractometer running in reflection mode. The 2-theta position is calibrated against a standard before running the experiment. XRPD analysis was carried out on a Panalytical X'Pert^3 Powder XRPD on a Si zero-background holder, scanning the samples between 3 and 40° 2-theta. The 2-theta position was calibrated against Panalytical 640 Si powder standard. The test material was gently compressed on a glass disc inserted into a sample holder. The sample was then loaded into a Panalytical X'Pert^3 Powder XRPD diffractometer running in reflection mode and analyzed, using the following experimental conditions.

[3] = Dynamic Vapor Sorption (DVS)
Experimental: Dynamic Vapor Sorption (DVS) was measured using a SMS (Surface Measurement Systems) DVS Intrinsic. The test was performed at 25° C. while the RH was varied from 0% to 95% at 10% increments in the range of 0% RH-90% RH and at 5% increment up to 95% RH. The change in mass after each increase or decrease in the RH was recorded as a percentage of the original mass of the starting material. Dynamic Vapor Sorption (DVS) was measured using a SMS (Surface Measurement Systems) DVS Intrinsic, using the following parameters: [table]

[4] = Solubility estimation; conditions: thermodynamic from solid
Experimental: Solubility of the solid forms of the present application in a variety of solvents is measured. Solvent is added to a sample until the total volume reaches 100 μL, followed by 100 μL per step until the sample is dissolved or the concentration is less than <1.0 mg/mL. The approximate solubility is then calculated.
Solubility of the solid forms of the present application in a variety of solvents was measured according to the following procedures. A sample (˜2 mg) was weighed into a 4-mL glass vial. Solvent was added into the vial stepwise at 50 μL per step until the total volume was 100 μL, followed by 100 μL per step until concentration was less than 1.0 mg/mL. The solutions were mixed thoroughly after each addition by sonication for 2 minutes and vortexing for 1 minute. The addition of solvent was complete if the sample was dissolved or the concentration was <1.0 mg/mL. The volumes of solvent (V1 and V2) were recorded, and approximate solubility was calculated.

[5] = XRPD after air-drying or vacuum drying
Experimental: as §1, with “XRPD” for “XRPD analysis is carried out using a diffractometer running in reflection mode. The 2-theta position is calibrated against a standard before running the experiment. XRPD”

- Area Percent at 248 nm T1 week ([1]; 25° C./60% RH): 99.8 Area Percent
- Area Percent at 248 nm T2 week ([1]; 25° C./60% RH): 99.8 Area Percent
- Area Percent at 248 nm T4 week ([1]; 25° C./60% RH): 99.8 Area Percent
- Area Percent at 248 nm T8 week ([1]; 25° C./60% RH): 99.8 Area Percent
- Area Percent at 248 nm T0 ([1]; 25° C./60% RH): 99.8 Area Percent
- Area Percent at 248 nm T1 week ([1]; 40° C./75% RH): 99.8 Area Percent
- Area Percent at 248 nm T2 week ([1]; 40° C./75% RH): 99.8 Area Percent
- Area Percent at 248 nm T4 week ([1]; 40° C./75% RH): 99.8 Area Percent
- Area Percent at 248 nm T8 week ([1]; 40° C./75% RH): 99.8 Area Percent
- Area Percent at 248 nm T0 ([1]; 40° C./75% RH): 99.8 Area Percent
- Area Percent at 248 nm T1 week ([1]; 55° C./75% RH): 99.8 Area Percent
- Area Percent at 248 nm T2 week ([1]; 55° C./75% RH): 99.8 Area Percent
- Area Percent at 248 nm T4 week ([1]; 55° C./75% RH): 99.7 Area Percent
- Area Percent at 248 nm T8 week ([1]; 55° C./75% RH): 99.8 Area Percent
- Area Percent at 248 nm T0 ([1]; 55° C./75% RH): 99.8 Area Percent
- Area Percent at 248 nm T1 week ([1]; Ambient): 99.8 Area Percent
- Area Percent at 248 nm T2 week ([1]; Ambient): 99.7 Area Percent
- Area Percent at 248 nm T4 week ([1]; Ambient): 99.7 Area Percent
- Area Percent at 248 nm T8 week ([1]; Ambient): 99.7 Area Percent
- Area Percent at 248 nm T0 ([1]; Ambient): 99.8 Area Percent
- change in HPLC area percent purity (LCAP) ([1]; selected storage conditions, time points over eight-week study): no significant decrease
- change in physical form (XRPD) ([2]; 25° C./60% RH): no change in physical form
- change in physical form (XRPD) ([2]; 40° C./75% RH): no change in physical form
- change in physical form (XRPD) ([2]; 55° C./75% RH): no change in physical form
- change in physical form (XRPD) ([2]; ambient conditions): no change in physical form
- hygroscopicity [3]: non-hygroscopic
- XRPD pattern after exposure to DVS experiment ([3]; 25° C. and RH up to 95%): does not change
- water uptake ([3]; between 0 and 80% RH at between 25° C. and 45° C.): less than 0.2 % w/w
- solubility thermodynamic ([4]; aqueous): < 1.5 mg/mL
- solubility ([4]; water, aqueous solution (e.g., water), room temperature, read-out: aqueous solubility (dissolved completely)): > 20 mg/mL
- crystallinity after drying (XRPD) [5]: no loss of crystallinity
SMILES: O=C(Cc1ccc(-c2ccc(OCCN3CCOCC3)cc2)cn1)NCc1ccccc1 [Form A, 2-(5-(4-(2-morpholinoethoxy)phenyl)pyridin-2-yl)-N-benzylacetamide]
